# Laboratory results reported in patent US9949980B2, “Drugs to prevent HPV infection” (Wisconsin Alumni Research Foundation, priority 2008, dated 2018).
# Experiments:
# [1] = tested on: 293T cells; assay: Primary HTS: cell viability (CellTiter Glo) in parallel on the same wells; details: 3 μM HTS standard concentration, 293T cells
# [2] = tested on: HPV16 pseudoviruses; assay: microbe, parasite or virus in culture; type: cell-based; details: 3 μM HTS standard concentration
# Method in brief: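 Viability was read by CellTiter Glo luminescence on the same wells used for the SEAP infection read-out, after 48 hrs further incubation.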
substance,measurement,setting,value
"-[(3-fluorophenypamino]-3-methylpyrido[1,2-a]benzimidazole-4-carbonitrile [Compound 5873417]",Viability (CelTiter Glow),[1],101.39%
same,Infectivity (SEAP Activity),"[2]; 293T cells, 48 hrs",46.16%
same,Infectivity vs. viability,[2]; ratio infectivity/viability,45.53%
